Measurements reported in US11408885B2, “Compositions and multiplex assays for characterizing active proteases and their inhibitors” (Massachusetts Institute of Technology, priority 2017, dated 2022).

Tests used:
Experiment in all cases: FRET substrate cleavage by recombinant MMP, inhibition by activity-based probe
Type in all cases: biochemical
MMP10 = MMP10 (Homo sapiens, UniProt P09238); details: FRET substrate PEPDAB052 10 μM, read-out: IC50, inhibition of substrate cleavage of active MMP
Excerpt: (§1) The binding of an activity-based probe, e.g., HxBP-Bt, to the active site of an MMP (as shown in FIG. 1A) would effectively reduce (or inhibit) the ability of such MMP to cleave its substrate. […] This correlation should also provide an IC50 value to measure the sensitivity/potency of the MAMBI system to bind, and thereby quantify, active MMPs. […] Fluorescence resonance energy transfer (FRET) technique is used to determine if a substrate is cleaved by pre-labeling two parts of a substrate molecule with a donor chromophore and an acceptor chromophore, respectively, and measuring the energy transfer efficiency from the donor to the acceptor chromophore to determine if two fluorophores are within a certain distance of each other, i.e. the substrate is intact and uncleaved. Here, HxBP-Bt bound MMP samples were mixed with chromophore-labeled substrate peptides in 384-well OptiPlates® at 37° C. using timelapse fluorimetry in the Spectromax® M3 and M2e fluorimeters (Molecular Devices). The fluorescence was monitored by plate reader. In general, readings measured fluorescence every 20 minutes for roughly five hours and the reported rate of increase in fluorescence was calculated from fitting a linear portion of this increase including at least 4 data points and subtracting the average increase in background, protease-free conditions. […] Reaction velocities were calculated from linear reaction periods from raw fluorescence value time courses. […] Relative rates of FRET substrate cleavage among samples with the addition of HxBP-Bt were quantified and compared with the rates without HxBP-Bt. Activities of recombinant MMPs 1, 7, 8, 12 and 13, in the presence or absence of HxBP-Bt probe, were characterized with […]008 (Dabcyl-[…]); MMPs 2 and 9 with […]011 (Dabcyl-[…]) and MMPs 3 and 10 with […]052 (Dabcyl-[…]). […] These IC50 values were used to estimate binding off-rates in the computational model. IC50 of the inhibitor was calculated by fitting the resulting dose-dependent data with the PRISM software (GraphPad, USA)

MMP13 = MMP13 (Homo sapiens, UniProt P45452); details: FRET substrate PEPDAB008 10 μM, read-out: IC50, inhibition of substrate cleavage of active MMP
Excerpt: as §1

MMP8 = MMP8 (Homo sapiens, UniProt P22894); details: FRET substrate PEPDAB008 10 μM, read-out: IC50, inhibition of substrate cleavage of active MMP
Excerpt: as §1

MMP1 = target: T1, MMP1 (Homo sapiens, UniProt P03956); design: purchased Peprotech; details: FRET substrate PEPDAB008 10 μM, read-out: IC50, inhibition of substrate cleavage of active MMP
T1 sequence (P03956 100-469): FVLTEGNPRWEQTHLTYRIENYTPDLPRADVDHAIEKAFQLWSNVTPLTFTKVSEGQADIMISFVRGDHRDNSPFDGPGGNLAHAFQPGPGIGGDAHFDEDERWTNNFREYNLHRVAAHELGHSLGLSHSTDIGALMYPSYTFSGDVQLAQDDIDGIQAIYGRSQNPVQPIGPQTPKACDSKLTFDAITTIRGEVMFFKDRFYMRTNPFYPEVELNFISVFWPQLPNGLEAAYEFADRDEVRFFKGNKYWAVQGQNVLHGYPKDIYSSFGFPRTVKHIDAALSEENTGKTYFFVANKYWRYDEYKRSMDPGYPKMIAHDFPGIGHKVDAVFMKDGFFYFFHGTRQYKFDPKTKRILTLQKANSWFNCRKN
Excerpt: as §1

MMP2 = target: T2, MMP2 (Homo sapiens, UniProt P08253); design: purchased Peprotech; details: FRET substrate PEPDAB011 10 μM, read-out: IC50, inhibition of substrate cleavage of active MMP
T2 sequence (P08253 110-660): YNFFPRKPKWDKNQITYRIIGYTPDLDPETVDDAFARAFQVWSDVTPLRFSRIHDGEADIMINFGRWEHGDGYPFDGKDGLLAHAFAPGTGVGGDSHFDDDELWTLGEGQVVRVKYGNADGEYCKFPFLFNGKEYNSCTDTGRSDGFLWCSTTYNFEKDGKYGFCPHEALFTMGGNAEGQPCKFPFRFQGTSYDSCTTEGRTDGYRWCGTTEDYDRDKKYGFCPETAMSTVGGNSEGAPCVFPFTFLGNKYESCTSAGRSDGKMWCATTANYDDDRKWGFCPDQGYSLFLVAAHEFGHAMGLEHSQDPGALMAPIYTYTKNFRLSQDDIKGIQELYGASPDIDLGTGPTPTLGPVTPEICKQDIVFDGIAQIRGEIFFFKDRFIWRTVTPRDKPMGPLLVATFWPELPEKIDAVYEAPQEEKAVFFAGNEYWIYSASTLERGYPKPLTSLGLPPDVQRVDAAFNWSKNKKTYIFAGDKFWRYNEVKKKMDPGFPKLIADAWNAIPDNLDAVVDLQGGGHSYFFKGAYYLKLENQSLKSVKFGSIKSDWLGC
Excerpt: as §1

MMP3 = MMP3 (Homo sapiens, UniProt P08254); design: purchased Peprotech; details: FRET substrate PEPDAB052 10 μM, read-out: IC50, inhibition of substrate cleavage of active MMP
Excerpt: as §1

MMP12 = MMP12 (Homo sapiens, UniProt P39900); design: The recombinant catalytic domains of human MMPs 7 and 9 were purchased from Enzo Life Sciences, and of MMP 12 from Anaspec; purchased Anaspec; details: FRET substrate PEPDAB008 10 μM, read-out: IC50, inhibition of substrate cleavage of active MMP
Excerpt: (§2) The binding of an activity-based probe, e.g., HxBP-Bt, to the active site of an MMP (as shown in FIG. 1A) would effectively reduce (or inhibit) the ability of such MMP to cleave its substrate. […] This correlation should also provide an IC50 value to measure the sensitivity/potency of the MAMBI system to bind, and thereby quantify, active MMPs. […] Fluorescence resonance energy transfer (FRET) technique is used to determine if a substrate is cleaved by pre-labeling two parts of a substrate molecule with a donor chromophore and an acceptor chromophore, respectively, and measuring the energy transfer efficiency from the donor to the acceptor chromophore to determine if two fluorophores are within a certain distance of each other, i.e. the substrate is intact and uncleaved. […] The fluorescence was monitored by plate reader. In general, readings measured fluorescence every 20 minutes for roughly five hours and the reported rate of increase in fluorescence was calculated from fitting a linear portion of this increase including at least 4 data points and subtracting the average increase in background, protease-free conditions. […] Reaction velocities were calculated from linear reaction periods from raw fluorescence value time courses. […] Relative rates of FRET substrate cleavage among samples with the addition of HxBP-Bt were quantified and compared with the rates without HxBP-Bt. […]

MMP7 = target: T3, MMP7 (Homo sapiens, UniProt P09237); design: The recombinant catalytic domains of human MMPs 7 and 9 were purchased from Enzo Life Sciences, and of MMP 12 from Anaspec; purchased Enzo Life Sciences; details: FRET substrate PEPDAB008 10 μM, read-out: IC50, inhibition of substrate cleavage of active MMP
T3 sequence (P09237 95-267): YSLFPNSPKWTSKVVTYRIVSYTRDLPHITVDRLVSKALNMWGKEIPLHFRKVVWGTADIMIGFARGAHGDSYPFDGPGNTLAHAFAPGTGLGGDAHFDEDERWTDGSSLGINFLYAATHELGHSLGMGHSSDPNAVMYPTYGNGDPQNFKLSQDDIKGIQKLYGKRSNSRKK
Excerpt: as §2

MMP9 = MMP9 (Homo sapiens, UniProt P14780); design: The recombinant catalytic domains of human MMPs 7 and 9 were purchased from Enzo Life Sciences, and of MMP 12 from Anaspec; purchased Enzo Life Sciences; details: FRET substrate PEPDAB011 10 μM, read-out: IC50, inhibition of substrate cleavage of active MMP
Excerpt: as §2

Chain of MMP3 (P08254 100-477): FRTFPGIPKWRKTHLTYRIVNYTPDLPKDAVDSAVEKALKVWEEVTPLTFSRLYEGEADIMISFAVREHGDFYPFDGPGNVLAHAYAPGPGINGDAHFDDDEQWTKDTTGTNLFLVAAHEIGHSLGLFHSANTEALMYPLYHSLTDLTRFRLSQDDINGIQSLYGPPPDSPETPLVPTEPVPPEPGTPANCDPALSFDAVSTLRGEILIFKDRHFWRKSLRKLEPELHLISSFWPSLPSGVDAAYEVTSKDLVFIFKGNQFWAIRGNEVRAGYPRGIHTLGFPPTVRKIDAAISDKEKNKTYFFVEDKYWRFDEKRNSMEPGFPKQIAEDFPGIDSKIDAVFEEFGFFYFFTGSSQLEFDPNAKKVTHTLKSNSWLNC
Chain of MMP10 (P09238 99-476): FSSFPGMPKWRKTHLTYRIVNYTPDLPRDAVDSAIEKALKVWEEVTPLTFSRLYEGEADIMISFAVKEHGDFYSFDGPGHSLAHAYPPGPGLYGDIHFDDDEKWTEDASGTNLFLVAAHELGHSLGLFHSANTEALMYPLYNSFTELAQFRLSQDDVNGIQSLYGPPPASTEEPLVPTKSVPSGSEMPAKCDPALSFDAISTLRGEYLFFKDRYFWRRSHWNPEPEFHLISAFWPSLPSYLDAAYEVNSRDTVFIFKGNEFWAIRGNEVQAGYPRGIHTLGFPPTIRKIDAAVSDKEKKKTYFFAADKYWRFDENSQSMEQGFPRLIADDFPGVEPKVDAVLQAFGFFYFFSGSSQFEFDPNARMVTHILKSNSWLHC
Chain of MMP8 (P22894 101-467, species assumed): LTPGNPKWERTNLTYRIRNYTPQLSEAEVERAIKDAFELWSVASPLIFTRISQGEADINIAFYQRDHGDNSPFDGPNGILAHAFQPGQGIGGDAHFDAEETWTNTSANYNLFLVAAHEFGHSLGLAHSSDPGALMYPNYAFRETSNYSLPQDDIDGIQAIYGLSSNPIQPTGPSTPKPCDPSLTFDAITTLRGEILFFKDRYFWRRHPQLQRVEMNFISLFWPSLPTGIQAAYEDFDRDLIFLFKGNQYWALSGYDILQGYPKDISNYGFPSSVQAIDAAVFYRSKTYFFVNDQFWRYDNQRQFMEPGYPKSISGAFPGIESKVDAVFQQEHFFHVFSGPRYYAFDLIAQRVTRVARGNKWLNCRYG
Chain of MMP9 (P14780 107-449 limits assumed): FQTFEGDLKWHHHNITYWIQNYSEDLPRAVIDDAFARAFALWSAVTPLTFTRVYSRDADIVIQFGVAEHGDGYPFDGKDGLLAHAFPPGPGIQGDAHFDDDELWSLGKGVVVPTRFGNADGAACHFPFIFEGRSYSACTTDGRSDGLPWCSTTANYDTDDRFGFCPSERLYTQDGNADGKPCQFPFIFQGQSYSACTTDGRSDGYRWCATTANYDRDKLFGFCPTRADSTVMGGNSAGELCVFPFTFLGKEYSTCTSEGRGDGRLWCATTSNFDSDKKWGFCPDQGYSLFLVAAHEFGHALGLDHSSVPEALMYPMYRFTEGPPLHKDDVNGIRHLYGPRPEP
Chain of MMP12 (P39900 106-263 limits assumed): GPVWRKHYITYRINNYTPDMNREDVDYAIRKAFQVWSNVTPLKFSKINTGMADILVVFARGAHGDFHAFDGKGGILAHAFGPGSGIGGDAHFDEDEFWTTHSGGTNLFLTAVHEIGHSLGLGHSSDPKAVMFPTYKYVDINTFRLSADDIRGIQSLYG

- IC50 (MMP10): 29 nM
- IC50 (MMP13): 2.3 nM
- IC50 (MMP8): 2.4 nM
- IC50 (MMP1): 2.1 nM
- IC50 (MMP2): 3.3 nM
- IC50 (MMP3): 61 nM
- IC50 (MMP12): 4 nM
- IC50 (MMP7): 9.2 nM
- IC50 (MMP9): 2.7 nM
SMILES: CC(C)CC(C(=O)NC(Cc1ccc(C(=O)c2ccccc2)cc1)C(=O)NCCOCCOCCOCC(=O)NCC(C)(C)SSC(C)(C)CNC(=O)CCCCC1SCC2NC(=O)NC21)C(O)C(=O)NO (stereo not drawn) [HxBP-Bt, biotin-tagged hydroxamate benzophenone (HxBP-Bt) probe]
